Results from PubChem BioAssay (NCI).
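Five concentrations, 48 hours, 96-well plates. The concentration for full growth arrest is given as TGI.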

How the values were obtained:
Assay in all cases: growth of human tumour cells (NCI), 48 h
[1] = tested on: SK-MEL-28 melanoma
[2] = tested on: MALME-3M melanoma
[3] = tested on: SW-620 colon
[4] = tested on: NCI-H226 lung
[5] = tested on: HOP-18 NSCLC
[6] = tested on: OVCAR-8 ovarian
[7] = tested on: KM20L2 colon
[8] = tested on: OVCAR-4 ovarian
[9] = tested on: SF-295 CNS
[10] = tested on: CAKI-1 renal
[11] = tested on: DMS 114 small cell lung
[12] = tested on: TK-10 renal
[13] = tested on: K-562 leukemia
[14] = tested on: UO-31 renal
[15] = tested on: UACC-62 melanoma
[16] = tested on: A498 renal
[17] = tested on: ACHN renal
[18] = tested on: LOX IMVI melanoma
[19] = tested on: HL-60(TB) leukemia
[20] = tested on: SF-539 CNS
[21] = tested on: RXF 393 renal
[22] = tested on: KM12 colon
[23] = tested on: MOLT-4 leukemia
[24] = tested on: RPMI-8226 leukemia
[25] = tested on: CCRF-CEM leukemia
[26] = tested on: HCT-15 colon
[27] = tested on: 786-0 renal
[28] = tested on: M14 melanoma
[29] = tested on: SK-MEL-2 melanoma
[30] = tested on: SNB-75 CNS
[31] = tested on: A549 NSCLC
[32] = tested on: SK-MEL-5 melanoma
[33] = tested on: XF 498 CNS
[34] = tested on: DMS 273 small cell lung
[35] = tested on: HT29 colon
[36] = tested on: EKVX NSCLC
[37] = tested on: SNB-19 CNS
[38] = tested on: NCI-H460 lung
[39] = tested on: U251 CNS
[40] = tested on: M19-MEL melanoma
[41] = tested on: DLD-1 colon
[42] = tested on: SN12C renal
[43] = tested on: LXFL 529 NSCLC
[44] = tested on: HOP-92 NSCLC
[45] = tested on: HCT-116 colon
[46] = tested on: NCI-H23 lung
[47] = tested on: OVCAR-3 ovarian
[48] = tested on: HCC-2998 colon
[49] = tested on: UACC-257 melanoma
[50] = tested on: OVCAR-5 ovarian
[51] = tested on: SNB-78 CNS
[52] = tested on: SR leukemia
[53] = tested on: RXF-631 renal
[54] = tested on: HOP-62 NSCLC
[55] = tested on: COLO 205 colon
[56] = tested on: SF-268 CNS
[57] = tested on: NCI-H522 lung
[58] = tested on: IGROV1 ovarian
[59] = tested on: SK-OV-3 ovarian

## CN(C)C=C1C(=O)N(C)C(=O)N(C)C1=O
[1]
  TGI: > 100 µM
[2]
  TGI: > 100 µM
[3]
  TGI: > 100 µM
[4]
  TGI: > 100 µM
[5]
  TGI: > 100 µM
[6]
  TGI: > 100 µM
[7]
  TGI: > 100 µM
[8]
  TGI: > 100 µM
[9]
  TGI: > 100 µM
[10]
  TGI: > 100 µM
[11]
  TGI: > 100 µM
[12]
  TGI: > 100 µM
[13]
  TGI: > 100 µM
[14]
  TGI: > 100 µM
[15]
  TGI: > 100 µM
[16]
  TGI: > 100 µM
[17]
  TGI: > 100 µM
[18]
  TGI: > 100 µM
[19]
  TGI: > 100 µM
[20]
  TGI: > 100 µM
[21]
  TGI: > 100 µM
[22]
  TGI: > 100 µM
[23]
  TGI: > 100 µM
[24]
  TGI: > 100 µM
[25]
  TGI: > 100 µM
[26]
  TGI: > 100 µM
[27]
  TGI: > 100 µM
[28]
  TGI: > 100 µM
[29]
  TGI: > 100 µM
[30]
  TGI: > 100 µM
[31]
  TGI: > 100 µM
[32]
  TGI: > 100 µM
[33]
  TGI: > 100 µM
[34]
  TGI: > 100 µM
[35]
  TGI: > 100 µM
[36]
  TGI: > 100 µM
[37]
  TGI: > 100 µM
[38]
  TGI: > 100 µM
[39]
  TGI: > 100 µM
[40]
  TGI: > 100 µM
[41]
  TGI: > 100 µM
[42]
  TGI: > 100 µM
[43]
  TGI: > 100 µM
[44]
  TGI: > 100 µM
[45]
  TGI: > 100 µM
[46]
  TGI: > 100 µM
[47]
  TGI: > 100 µM
[48]
  TGI: > 100 µM
[49]
  TGI: > 100 µM
[50]
  TGI: > 100 µM
[51]
  TGI: > 100 µM
[52]
  TGI: > 100 µM

## O=C(c1ccccc1)N1C2C3CC(OCc4ccccc4)(OCc4ccccc4)C(O3)C21 (stereo not given)
[53]
  TGI: > 100 µM
[1]
  TGI: > 100 µM
[2]
  TGI: > 100 µM
[3]
  TGI: > 100 µM
[4]
  TGI: > 100 µM
[6]
  TGI: > 100 µM
[7]
  TGI: > 100 µM
[8]
  TGI: > 100 µM
[54]
  TGI: > 100 µM
[10]
  TGI: > 100 µM
[11]
  TGI: > 100 µM
[12]
  TGI: > 100 µM
[13]
  TGI: > 100 µM
[55]
  TGI: > 100 µM
[14]
  TGI: > 100 µM
[15]
  TGI: > 100 µM
[16]
  TGI: > 100 µM
[17]
  TGI: > 100 µM
[18]
  TGI: > 100 µM
[19]
  TGI: > 100 µM
[20]
  TGI: > 100 µM
[21]
  TGI: > 100 µM
[23]
  TGI: > 100 µM
[24]
  TGI: > 100 µM
[25]
  TGI: > 100 µM
[26]
  TGI: > 100 µM
[56]
  TGI: > 100 µM
[27]
  TGI: > 100 µM
[28]
  TGI: > 100 µM
[29]
  TGI: > 100 µM
[30]
  TGI: > 100 µM
[31]
  TGI: > 100 µM
[32]
  TGI: > 100 µM
[33]
  TGI: > 100 µM
[36]
  TGI: > 100 µM
[37]
  TGI: > 100 µM
[38]
  TGI: > 100 µM
[39]
  TGI: > 100 µM
[40]
  TGI: > 100 µM
[41]
  TGI: > 100 µM
[42]
  TGI: > 100 µM
[43]
  TGI: > 100 µM
[44]
  TGI: > 100 µM
[57]
  TGI: > 100 µM
[45]
  TGI: > 100 µM
[58]
  TGI: > 100 µM
[46]
  TGI: > 100 µM
[48]
  TGI: > 100 µM
[50]
  TGI: > 100 µM
[59]
  TGI: > 100 µM
[51]
  TGI: > 100 µM

## C/C(CC(=O)Nc1ccccc1[N+](=O)[O-])=N\NC(N)=O
[53]
  TGI: > 100 µM
[1]
  TGI: > 100 µM
[2]
  TGI: > 100 µM
[3]
  TGI: > 100 µM
[4]
  TGI: > 100 µM
[6]
  TGI: > 100 µM
[7]
  TGI: > 100 µM
[54]
  TGI: > 100 µM
[9]
  TGI: > 100 µM
[11]
  TGI: > 100 µM
[12]
  TGI: > 100 µM
[13]
  TGI: > 100 µM
[55]
  TGI: > 100 µM
[14]
  TGI: > 100 µM
[15]
  TGI: > 100 µM
[17]
  TGI: > 100 µM
[18]
  TGI: > 100 µM
[19]
  TGI: > 100 µM
[20]
  TGI: > 100 µM
[21]
  TGI: > 100 µM
[22]
  TGI: > 100 µM
[23]
  TGI: > 100 µM
[24]
  TGI: > 100 µM
[25]
  TGI: > 100 µM
[56]
  TGI: > 100 µM
[27]
  TGI: > 100 µM
[28]
  TGI: > 100 µM
[29]
  TGI: > 100 µM
[30]
  TGI: > 100 µM
[31]
  TGI: > 100 µM
[32]
  TGI: > 100 µM
[33]
  TGI: > 100 µM
[35]
  TGI: > 100 µM
[36]
  TGI: > 100 µM
[38]
  TGI: > 100 µM
[39]
  TGI: > 100 µM
[40]
  TGI: > 100 µM
[41]
  TGI: > 100 µM
[43]
  TGI: > 100 µM
[44]
  TGI: > 100 µM
[57]
  TGI: > 100 µM
[45]
  TGI: > 100 µM
[58]
  TGI: > 100 µM
[46]
  TGI: > 100 µM
[47]
  TGI: > 100 µM
[48]
  TGI: > 100 µM
[49]
  TGI: > 100 µM
[50]
  TGI: > 100 µM
[59]
  TGI: > 100 µM
[51]
  TGI: > 100 µM

## COc1ccc(/C=C/C(=O)C(C)C)cc1
[1]
  TGI: > 100 µM
[2]
  TGI: > 100 µM
[3]
  TGI: > 100 µM
[5]
  TGI: > 100 µM
[6]
  TGI: > 100 µM
[7]
  TGI: 64.3 µM
[8]
  TGI: > 100 µM
[54]
  TGI: > 100 µM
[9]
  TGI: > 100 µM
[10]
  TGI: > 100 µM
[11]
  TGI: 43 µM
[12]
  TGI: > 100 µM
[13]
  TGI: > 100 µM
[55]
  TGI: > 100 µM
[14]
  TGI: > 100 µM
[15]
  TGI: > 100 µM
[16]
  TGI: > 100 µM
[17]
  TGI: > 100 µM
[18]
  TGI: > 100 µM
[19]
  TGI: 59.2 µM
[20]
  TGI: > 100 µM
[22]
  TGI: 98 µM
[23]
  TGI: > 100 µM
[25]
  TGI: > 100 µM
[26]
  TGI: > 100 µM
[56]
  TGI: > 100 µM
[27]
  TGI: > 100 µM
[28]
  TGI: > 100 µM
[29]
  TGI: 73.8 µM
[30]
  TGI: > 100 µM
[31]
  TGI: > 100 µM
[32]
  TGI: > 100 µM
[33]
  TGI: > 100 µM
[34]
  TGI: > 100 µM
[35]
  TGI: 79.6 µM
[36]
  TGI: > 100 µM
[37]
  TGI: > 100 µM
[38]
  TGI: > 100 µM
[39]
  TGI: > 100 µM
[40]
  TGI: > 100 µM
[41]
  TGI: > 100 µM
[42]
  TGI: > 100 µM
[43]
  TGI: 54.9 µM
[44]
  TGI: > 100 µM
[57]
  TGI: 41.7 µM
[45]
  TGI: > 100 µM
[58]
  TGI: > 100 µM
[46]
  TGI: > 100 µM
[47]
  TGI: 61.4 µM
[48]
  TGI: > 100 µM
[49]
  TGI: > 100 µM
[50]
  TGI: > 100 µM
[59]
  TGI: 90.6 µM
[51]
  TGI: 46.7 µM
[52]
  TGI: > 100 µM

## CC1CC(c2ccc(Cl)cc2)=Nc2ccccc2S1 (stereo not given)
[53]
  TGI: > 100 µM
[1]
  TGI: > 100 µM
[2]
  TGI: > 100 µM
[3]
  TGI: > 100 µM
[4]
  TGI: > 100 µM
[6]
  TGI: > 100 µM
[7]
  TGI: > 100 µM
[8]
  TGI: > 100 µM
[54]
  TGI: > 100 µM
[9]
  TGI: > 100 µM
[11]
  TGI: > 100 µM
[12]
  TGI: > 100 µM
[13]
  TGI: > 100 µM
[55]
  TGI: > 100 µM
[14]
  TGI: > 100 µM
[15]
  TGI: > 100 µM
[16]
  TGI: > 100 µM
[17]
  TGI: > 100 µM
[19]
  TGI: > 100 µM
[20]
  TGI: > 100 µM
[21]
  TGI: > 100 µM
[22]
  TGI: > 100 µM
[23]
  TGI: > 100 µM
[24]
  TGI: > 100 µM
[25]
  TGI: > 100 µM
[26]
  TGI: > 100 µM
[56]
  TGI: > 100 µM
[27]
  TGI: > 100 µM
[28]
  TGI: > 100 µM
[29]
  TGI: > 100 µM
[30]
  TGI: > 100 µM
[31]
  TGI: > 100 µM
[35]
  TGI: > 100 µM
[36]
  TGI: > 100 µM
[37]
  TGI: > 100 µM
[38]
  TGI: > 100 µM
[39]
  TGI: > 100 µM
[40]
  TGI: > 100 µM
[41]
  TGI: > 100 µM
[42]
  TGI: > 100 µM
[43]
  TGI: > 100 µM
[57]
  TGI: > 100 µM
[45]
  TGI: > 100 µM
[58]
  TGI: > 100 µM
[46]
  TGI: > 100 µM
[47]
  TGI: > 100 µM
[48]
  TGI: > 100 µM
[49]
  TGI: > 100 µM
[50]
  TGI: > 100 µM
[59]
  TGI: > 100 µM
[51]
  TGI: > 100 µM
[52]
  TGI: > 100 µM
